This series deals with Hartley albino guinea pigs. Put plainly: Guinea pig maximization test (Magnusson and Kligman method), delayed contact hypersensitivity. The note with it: primary challenge. The class given is in vivo. The procedure: The potential of EAP-1 to produce delayed contact hypersensitivity in guinea pigs was evaluated by the Magnusson and Kligman Maximization Test Method.
On day zero, twenty Hartley albino guinea pigs plus ten positive control animals, and ten vehicle control animals each received six intradermal injections, i.e. duplicate injections (0.1 ml;injection) for each of the three test groups: test material (undiluted), formaldehyde (5.0% w/v in distilled water) and acetone, respectively. Each animal also received two intradermal injections of 50% v/v Freund's Complete Adjuvant (FCA) in distilled water and two injections of the respective test or control materials in the FCA/distilled water emulsion.
On day 6, these same groups of animals were exposed topically to a preparation of their respective test (50% w/v in acetone) or control material under ELASTOPLAST@ (a product of Beiersdorf, Inc.) bandage wrappings for approximately 48 hours.
On day 19, all animals were topically challenged at a naive (not previously exposed) skin site using a preparation of their respective test or control material under ELASTOPLAST@ bandage wrappings for approximately 24 hours. Naive control animals were patched identically to and concurrently with the test and positive.
On the day after removal, the sites were depilated. Later that day and again on the next day, the sites were graded for erythema (redness). […]

SMILES strings stand for the structures.

On to `C=O` [positive control, formaldehyde], for which the sensitization classification result (positive control group) is “extreme sensitization”. Where the note is “positive control group (10/10)”, the “incidence of grade 1 responses or greater” value was found to be 100%.

These data come from patent publication EP0396405A2, “Cosmetic formulations employing esterified alkoxylated polyol carriers” (ARCO CHEMICAL TECHNOLOGY INC., priority 1989, dated 1990).
